Strand notation (5' to 3'): a small letter for the sugar, then the base; units joined by * are phosphorothioate-linked, units joined directly phosphodiester-linked; [ ] holds rarer units or linkages, { } end groups; capitals alone tell only the bases. [ms] = mesyl phosphoramidate linkage; e = 2'-O-(2-methoxyethyl) (MOE); k = constrained ethyl (cEt); [5mC] = 5-methylcytosine; d = 2'-deoxy (DNA)
How the values were obtained:
human APOE RNA [1] = assay: Dose-dependent inhibition of human APOE RNA in HepG2 cells, electroporation, 24 hours (Example 6); assay type: cell-based
Protocol: Modified oligonucleotides selected from the examples above were tested at various doses in HepG2.
HepG2 cells plated at a density of 50,000 cells per well were treated by electroporation with various concentrations of modified oligonucleotide as specified in the tables below. […] APOE RNA levels were measured using the human primer probe set RTS3073 (described herein above). APOE RNA levels were normalized to human GAPDH. Human GAPDH was amplified using human primer probe set RTS 104 (described herein above). Results are presented as percent APOE RNA, relative to the amount of APOE RNA in untreated control cells (% UTC). The half maximal inhibitory concentration (IC50) of each modified oligonucleotide was calculated in GraphPad Prism 10 (GraphPad Software, San Diego, CA) and is also presented in the tables below.

human APOE RNA [2] = assay: Activity in APOE C57BL/6NTac-Apoeem7250 knock-in mice, single ICV bolus, 4 weeks (Example 10); assay type: in vivo; settings: single ICV bolus 300 μg
Protocol: Modified oligonucleotides described above were tested in the APOE C57BL/6NTac-Apoeem7250 knock-in mouse model described above.
APOE C57BL/6NTac-Apoeem7250 knock-in mice were divided into groups of 2-4 mice each. Each mouse received a single ICV bolus of 300 μg of modified oligonucleotide. A group of 3-4 mice received a single ICV bolus with PBS as a negative control.
Four weeks post treatment, mice were sacrificed and RNA was extracted from cortical brain tissue and spinal cord for quantitative real-time RT-PCR analysis of RNA expression of APOE using human primer probe set RTS3073 (described herein above). APOE RNA levels were normalized to mouse Ppia. Mouse Ppia was amplified using primer probe set m_cyclo24 (described herein above). Results are presented as percent human APOE RNA relative to the amount of human APOE RNA in PBS treated animals, (% control). Each experiment is identified in separate tables below.

human APOE RNA [3] = assay: Activity in APOE C57BL/6NTac-Apoeem7250 knock-in mice, single ICV bolus, 16 weeks (Example 12); assay type: in vivo; settings: single ICV bolus 300 μg, 16 weeks post treatment, normalized to mouse Ppia
Summary of the method: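 Knock-in mice (3-4 per group) received one ICV bolus of 300 μg oligonucleotide, PBS as control. After 16 weeks, human APOE RNA in cortex and spinal cord measured by RT-qPCR, normalized to mouse Ppia, and reported as % of PBS control.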

human APOE RNA [4] = assay: Dose-dependent inhibition of human APOE RNA in HepG2 cells, electroporation, 50,000 cells per well, RT-PCR normalized to GAPDH (Example 4, Tables 8-10); assay type: cell-based; settings: HepG2, electroporation, 24-hour treatment
Protocol: Modified oligonucleotides selected from the examples above were tested at various doses in HepG2 cells. The modified oligonucleotides were tested in a series of experiments that had the same culture conditions. Each experiment is identified in separate tables below.
HepG2 cells plated at a density of 50,000 cells per well were treated by electroporation with various concentrations of modified oligonucleotide as specified in the tables below. […] APOE RNA levels were measured using the human primer probe set RTS3073 (forward sequence […], designated herein as SEQ ID NO: 7; reverse sequence CCATCAGCGCCCTCAGTT, designated herein as SEQ ID NO: 8; probe sequence […], designated herein as SEQ ID NO:9). APOE RNA levels were normalized to human GAPDH. […] Results are presented as percent APOE RNA, relative to the amount of APOE RNA in untreated control cells (UTC).

[5] = Cortex, C57BL/6NTac-Apoeem7250 knock-in mice, 4 weeks (Table 22)
[6] = Spinal Cord, C57BL/6NTac-Apoeem7250 knock-in mice, 4 weeks (Table 22)
[7] = cortex, 4 weeks post treatment, normalized to mouse Ppia
[8] = spinal cord, 4 weeks post treatment, normalized to mouse Ppia

Substance | IC50 (human APOE RNA [1]) [nM] | APOE RNA (% UTC) (human APOE RNA [1]; 5 nM) | APOE RNA (% UTC) (human APOE RNA [1]; 13 nM) | APOE RNA (% UTC) (human APOE RNA [1]; 33 nM) | APOE RNA (% UTC) (human APOE RNA [1]; 82 nM) | APOE RNA (% UTC) (human APOE RNA [1]; 205 nM) | APOE RNA (% UTC) (human APOE RNA [1]; 512 nM) | APOE RNA (% UTC) (human APOE RNA [4]; 5 nM) | APOE RNA (% UTC) (human APOE RNA [4]; 13 nM) | APOE RNA (% UTC) (human APOE RNA [4]; 33 nM) | APOE RNA (% UTC) (human APOE RNA [4]; 82 nM) | APOE RNA (% UTC) (human APOE RNA [4]; 205 nM) | APOE RNA (% UTC) (human APOE RNA [4]; 512 nM) | APOE RNA (% UTC) (human APOE RNA [4]; 1,280 nM) | APOE RNA (% UTC) (human APOE RNA [4]; 3,200 nM) | APOE RNA (% UTC) (human APOE RNA [4]; 8,000 nM) | APOE RNA (% UTC) (human APOE RNA [4]; 20,000 nM) | IC50 (human APOE RNA [4]) [nM] | APOE RNA (% control) Cortex (human APOE RNA [2]; [7]) [% control] | APOE RNA (% control) Spinal Cord (human APOE RNA [2]; [8]) [% control] | other results
1736492 (e[5mC]*eTeT*eG*eG*eT*dG[ms]dA[ms]dA[ms]dT*d[5mC]*dT*dT*dT*dA[ms]dT*kT*eA*eA*eA; antisense) [Compound 1736492] | 940 | 95 | 87 | 76 | 82 | 71 | 52 |  |  |  |  |  |  |  |  |  |  |  |  |  | APOE RNA (% UTC) (human APOE RNA [1]; 1,280 nM): 52 % UTC; APOE RNA (% UTC) (human APOE RNA [1]; 3,200 nM): 41 % UTC; APOE RNA (% UTC) (human APOE RNA [1]; 8,000 nM): 15 % UTC; APOE RNA (% UTC) (human APOE RNA [1]; 20,000 nM): 20 % UTC; APOE RNA (% control) Cortex (human APOE RNA [2]; [5]): 45 % control; APOE RNA (% control) Spinal Cord (human APOE RNA [2]; [6]): 46 % control; APOE RNA (% control) Cortex (human APOE RNA [3]): 53 % control; APOE RNA (% control) Spinal Cord (human APOE RNA [3]): 52 % control
1736493 (e[5mC]*eTeT*eG*eG*eT*dG[ms]dA[ms]dA[ms]dT*d[5mC]*dT*dT*dT*dA[ms]dT*kT*kA*eA*eA; antisense) [Compound 1736493] | 140 | 73 | 85 | 67 | 58 | 50 | 35 |  |  |  |  |  |  |  |  |  |  |  |  |  | APOE RNA (% UTC) (human APOE RNA [1]; 1,280 nM): 25 % UTC; APOE RNA (% UTC) (human APOE RNA [1]; 3,200 nM): 8 % UTC; APOE RNA (% UTC) (human APOE RNA [1]; 8,000 nM): 6 % UTC; APOE RNA (% UTC) (human APOE RNA [1]; 20,000 nM): 8 % UTC; APOE RNA (% control) Cortex (human APOE RNA [2]; [5]): 47 % control; APOE RNA (% control) Spinal Cord (human APOE RNA [2]; [6]): 51 % control; APOE RNA (% control) Cortex (human APOE RNA [3]): 57 % control; APOE RNA (% control) Spinal Cord (human APOE RNA [3]): 51 % control
1736513 (e[5mC]*eTeT*eG*eG*kT*dG[ms]dA[ms]dA[ms]dT*d[5mC]*dT*dT*dT*dA[ms]dT*eT*eA*eA*eA; antisense) [Compound 1736513] | 720 | 106 | 110 | 114 | 89 | 72 | 47 |  |  |  |  |  |  |  |  |  |  |  |  |  | APOE RNA (% UTC) (human APOE RNA [1]; 1,280 nM): 37 % UTC; APOE RNA (% UTC) (human APOE RNA [1]; 3,200 nM): 33 % UTC; APOE RNA (% UTC) (human APOE RNA [1]; 8,000 nM): 9 % UTC; APOE RNA (% UTC) (human APOE RNA [1]; 20,000 nM): 4 % UTC; APOE RNA (% control) Cortex (human APOE RNA [2]; [5]): 42 % control; APOE RNA (% control) Spinal Cord (human APOE RNA [2]; [6]): 52 % control; APOE RNA (% control) Cortex (human APOE RNA [3]): 53 % control; APOE RNA (% control) Spinal Cord (human APOE RNA [3]): 30 % control
1736528 (e[5mC]*eT*eT*eG*eG*eTdG[ms]dA[ms]dA[ms]dT*d[5mC]*dT*dT*dT*dA[ms]dT*kT*eA*eA*eA; antisense) [Compound 1736528] | 1630 | 100 | 112 | 107 | 116 | 84 | 62 |  |  |  |  |  |  |  |  |  |  |  |  |  | APOE RNA (% UTC) (human APOE RNA [1]; 1,280 nM): 50 % UTC; APOE RNA (% UTC) (human APOE RNA [1]; 3,200 nM): 39 % UTC; APOE RNA (% UTC) (human APOE RNA [1]; 8,000 nM): 23 % UTC; APOE RNA (% UTC) (human APOE RNA [1]; 20,000 nM): 16 % UTC; APOE RNA (% control) Cortex (human APOE RNA [2]; [5]): 57 % control; APOE RNA (% control) Spinal Cord (human APOE RNA [2]; [6]): 56 % control
1746796 (k[5mC]*kT*dT[ms]dG[ms]kG*dT[ms]dG[ms]dA[ms]dA[ms]dT*d[5mC]*dT*dT*dT*dA[ms]dT*kT*dA[ms]kA*kA; antisense) [Compound 1746796] |  |  |  |  |  |  |  | 110 | 126 | 128 | 137 | 119 | 89 | 71 | 40 | 28 | 20 | 3010 | 81 | 68 | 
1746797 (k[5mC]*kT*dT[ms]dG[ms]dG[ms]kT*dG[ms]dA[ms]dA[ms]dT*d[5mC]*dT*dT*dT*dA[ms]dT*kT*dA[ms]kA*kA; antisense) [Compound 1746797] |  |  |  |  |  |  |  | 139 | 128 | 150 | 143 | 129 | 113 | 71 | 37 | 42 | 18 | 3770 | 72 | 68 | 
1746802 (k[5mC]*dT[ms]dT[ms]dG[ms]kG*kT*dG[ms]dA[ms]dA[ms]dT*d[5mC]*dT*dT*dT*dA[ms]dT*kT*dA[ms]kA*kA; antisense) [Compound 1746802] |  |  |  |  |  |  |  | 76 | 108 | 74 | 72 | 58 | 57 | 36 | 47 | 39 | 3 | 780 | 72 | 52 | 
1746806 (k[5mC]*kT*dT[ms]dG[ms]kG*dT[ms]dG[ms]dA[ms]dA[ms]dT*d[5mC]*dT*dT*dT*dA[ms]dT*dT[ms]kA*kA*kA; antisense) [Compound 1746806] |  |  |  |  |  |  |  | 122 | 101 | 107 | 91 | 83 | 80 | 57 | 39 | 25 | 37 | 2580 | 92 | 75 | 
1746807 (k[5mC]*kT*dT[ms]dG[ms]dG[ms]kT*dG[ms]dA[ms]dA[ms]dT*d[5mC]*dT*dT*dT*dA[ms]dT*dT[ms]kA*kA*kA; antisense) [Compound 1746807] |  |  |  |  |  |  |  | 119 | 127 | 111 | 86 | 88 | 62 | 52 | 29 | 16 | 30 | 1430 | 90 | 119 | 
1746812 (k[5mC]*dT[ms]dT[ms]dG[ms]kG*kT*dG[ms]dA[ms]dA[ms]dT*d[5mC]*dT*dT*dT*dA[ms]dT*dT[ms]kA*kA*kA; antisense) [Compound 1746812] |  |  |  |  |  |  |  | 105 | 109 | 90 | 102 | 86 | 76 | 51 | 31 | 19 | 11 | 1500 | 68 | 79 | 

Source: patent US20250353873A1, “COMPOUNDS AND METHODS FOR MODULATING APOE EXPRESSION” (Ionis Pharmaceuticals, Inc., priority 2024, published 2025)
